Experimental findings from patent EP0134242B1, “[…] ANTIGEN” (NEW YORK UNIVERSITY, priority 1983, dated 1984) are described below.

Assay [1] deals with monoclonal antibody (2G3). Kind of assay: Inhibition by 12-MER of the binding of P. knowlesi CS protein to monoclonal antibody 2G3 (two-site assay). Also on record: species or system mouse. How it is done:
To distinguish between these possibilities, an assay was conducted to determine the ability of the 12-MER to inhibit the interaction between the CS proteins of P.knowlesi and the monoclonal antibody 2G3. The inhibition assay was performed as follows: Wells of microtiter plates were coated with the monoclonal antibody 2G3 washed with Tween-20, saturated with BSA as described supra. In one series of tubes, the 12-MER was serially diluted in PBS-BSA-Tween 20. In a second series of tubes, an extract of P.knowlesi sporozoites (prepared as described by Cochrane, et al, supra) was serially diluted in PBS-BSA-Tween 20. Aliquots of each dilution of sporozoites were mixed with equal volumes of all dilutions of 12-MER. 30 µl of these mixtures were then added to the bottom of the 2G3-coated wells. As positive and negative controls, 30 µl aliquots of sporozoite dilutions mixed with PBS-BSA-Tween 20 were added to other wells which had been precoated with 2G3 or with a non-relevant monoclonal antibody. After overnight incubation in the refrigerator, the wells were washed and 50 µl (10 ug) of ¹²⁵I-labeled 2G3 diluted in PBS-BSA-Tween 20 were added. Following an additional incubation at room temperature for 1 hour, the wells were washed and counted in a gamma counter. The results are shown in Table V. The 12-MER inhibited, in a dose-dependent fashion, the interaction of the P.knowlesi CS protein with 2G3.

In assay [2] the test system is 2G3, 5H8, and 8B8 antibodies. Put plainly: Inhibition immunoassays with peptide analogs, results in words for several antibodies together. As to conditions: for inhibition of the reaction of antibodies 2G3, 5H8 and 8B8 with the antigen (in words): P. knowlesi CS protein as antigen. In kind it is binding, mouse. The procedure:
(§1) Competitive inhibition of the antigen-antibody reaction by the thus synthesized peptides was measured by the following radioimmunoassay. P.knowlesi sporozoite CS protein was used as the antigen. • a) Preparation of antigen: 3,000 purified P. knowlesi sporozoites (Vanderberg et al., Military Medicine 134:1183, 1969) in 50 µl of phosphate buffered saline (PBS) containing protease inhibitors, were delivered to the bottom of polystyrene (Falcon 3911 plate, B-D and Co., Oxnard, Calif.) microtiter plates, which were sealed with parafilm and frozen at -70°C for at least ten minutes. The plates were then allowed to defrost slowly at room temperature. This procedure was repeated six times. Then the plates were incubated at 4°C overnight, and at 56°C for five minutes. The P. knowlesi extract was then removed from the wells and these were washed three times with PBS containing 1% bovine serum albumin (BSA) and 0.1% NaN₃. The wells were then filled with PBS-BSA-NaN₃ and incubated for a few hours at room temperature. • b) Preparation of peptides and two-site radio immunoassay to determine the inhibitory activity of the analogs; • (1) All synthetic peptides were dissolved in PBS at a concentration of 10 mM and subsequently diluted serially in PBS-1% BSA/0.1%NaN₃. Twenty-five µl of serial dilutions of each peptide were added to the wells coated with antigen. Control wells received only the diluent. Then, 25 µl of the ¹²⁵I-labelled monoclonal antibody (about 5-10ng, 10⁵cpm) were added to the wells. The microtiter plates were incubated at 4°C for 18 hours, washed 5 times with PBS-BSA-NaN₃ and then the wells were counted for well-bound antibody.
The series of shorter analogs and one peptide overlapping two epitopes (7-6) shown in Table VII was used to analyze the specificity of the 2G3, 5H8, and 8B8 antibodies using the inhibition immunoassays described in Examples 10 and 11. […] On a molar basis, their activities were similar, although in some instances the larger peptides appeared to be slightly better inhibitors. […]

In another assay the test system is monoclonal antibody 2G3. Put plainly: Two-site immunoradiometric assay with monoclonal antibody 2G3 and synthetic peptides. Format: binding, mouse. The procedure: Wells of microtiter plates (Falcon 3911) were incubated overnight at 4°C with 50 µl of a 10 µg/ml solution in PBS of the monoclonal 2G3 anti-CS protein of P.knowlesi. The wells were washed with PBS and then incubated for 2 hours at room temperature, with PBS-Tween 20 (0.05% (w/v), and then for 3 additional hours with PBS-BSA (1% (w/v). The synthetic peptides were diluted serially in PBS-BSA-Tween 20, and 30 µl aliquots of the dilutions were delivered to the bottom of individual wells. The plates were incubated overnight in the refrigerator, washed with PBS-BSA-Tween 20, and incubated with 5.0 µl (10 ng) of ¹²⁵I-labeled monoclonal antibody 2G3 diluted in PBS-BSA-Tween 20 (about 100,000 cpm). Controls consisted of plates coated with a non-relevant monoclonal antibody of the same isotype as 2G3. Specific counts were found only in wells incubated with the 24-MER and they were proportional to the dose of peptide added to the well.

The next assay relates to antibody 8E11. Put plainly: Inhibition by synthetic peptides of binding of radiolabelled monoclonal antibody to CS protein (radioimmunoassay). More on the design: species or system mouse. To be noted: at a concentration of 10⁻²M. How it is done:
as §1, with “The wells were then filled with PBS-BSA-NaN₃ and incubated for a few hours at room temperature. • b) Preparation of peptides and two-site radio immunoassay to determine the inhibitory activity of the analogs; • (1) All synthetic peptides were dissolved in PBS at a concentration of 10 mM and subsequently diluted serially in PBS-1% BSA/0.1%NaN₃. Twenty-five µl of serial dilutions of each peptide were added to the wells coated with antigen. Control wells received only the diluent. Then, 25 µl of the ¹²⁵I-labelled monoclonal antibody (about 5-10ng, 10⁵cpm) were added to the wells.” left out, “antibody. […]” for “antibody.”

For “H₂N-GlnAlaGlnGlyAspGlyAla-AsnAlaGlyGlnPro-COOH (H-QAQGDGANAGQP-OH) [Peptide 12-MER]”, the “Amount of 2G3 bound (cpm) in the presence of the 12-MER inhibitor” value in assay [1] (12-MER 0.08 mg/ml, P. knowlesi extract 10³ sporozoites/ml (no inhibitor: 156)) was 72 cpm; in assay [1] (12-MER 0.08 mg/ml, P. knowlesi extract 10⁴ sporozoites/ml (no inhibitor: 1353)), 102 cpm; in assay [1] (12-MER 0.08 mg/ml, P. knowlesi extract 10⁵ sporozoites/ml (no inhibitor: 4390)), 1221 cpm; in assay [1] (12-MER 0.08 mg/ml, P. knowlesi extract 10⁶ sporozoites/ml (no inhibitor: 5582)), 3893 cpm; in assay [1] (12-MER 0.6 mg/ml, P. knowlesi extract 10³ sporozoites/ml (no inhibitor: 156)), 0 cpm; in assay [1] (12-MER 0.6 mg/ml, P. knowlesi extract 10⁴ sporozoites/ml (no inhibitor: 1353)) it was 70 cpm. For the same substance, the “Amount of 2G3 bound (cpm) in the presence of the 12-MER inhibitor” value is recorded as 781 cpm in assay [1] (12-MER 0.6 mg/ml, P. knowlesi extract 10⁵ sporozoites/ml (no inhibitor: 4390)); 3018 cpm in assay [1] (12-MER 0.6 mg/ml, P. knowlesi extract 10⁶ sporozoites/ml (no inhibitor: 5582)); 37 cpm in assay [1] (12-MER 5.0 mg/ml, P. knowlesi extract 10³ sporozoites/ml (no inhibitor: 156)); 3 cpm in assay [1] (12-MER 5.0 mg/ml, P. knowlesi extract 10⁴ sporozoites/ml (no inhibitor: 1353)); 361 cpm in assay [1] (12-MER 5.0 mg/ml, P. knowlesi extract 10⁵ sporozoites/ml (no inhibitor: 4390)); 1099 cpm in assay [1] (12-MER 5.0 mg/ml, P. knowlesi extract 10⁶ sporozoites/ml (no inhibitor: 5582)). The “inhibition of the reaction of antibodies 2G3, 5H8 and 8B8 with the antigen (in words)” value in assay [2] was “strongly inhibitory”. For the same substance, the “Amount of radiolabeled 2G3 (cpm) bound in wells” value with monoclonal antibody 2G3 (peptide 5. µg/ml incubated with the solid-phase antibody 2G3) is 40 cpm; in the assay on monoclonal antibody 2G3 (peptide 50. µg/ml incubated with the solid-phase antibody 2G3), 103 cpm; in the assay with monoclonal antibody 2G3 (peptide 500. µg/ml incubated with the solid-phase antibody 2G3), 157 cpm; with monoclonal antibody 2G3 (peptide .5 µg/ml incubated with the solid-phase antibody 2G3) it was 0 cpm. In the assay with antibody 8E11, the “inhibitory effect on binding of radiolabelled 8E11 to the CS protein” value is recorded as “no appreciable inhibitory effect”.

Turning to “Ala₇-Asn₈-Ala₉-Gly₁₀-Gln₁₁-Pro₁₂-Gln₁-Ala₂-Gln₃-Gly₄-Asp₅-Gly₆”, in assay [2] (assayed as in the foregoing Examples (antibodies 2G3, 5H8, 8B8, 8E11)), the “activity in the inhibition assays of the foregoing Examples (in words)” value is “inactive”.

With “Asp₅-Gly-Ala-Asn-Ala-Gly-Gln-Pro₁₂ [5 - 12]”, the “inhibition of the reaction of antibodies 2G3, 5H8 and 8B8 with the antigen (in words)” value in assay [2] is listed as “strongly inhibitory”.
